This is an account of results in PMC5086599 (Viruses, 2016).

Broadly, the IC50 is the point on the concentration scale where inhibition reaches its midpoint.

Like-named read-outs stand apart in the source and are kept apart here.

Test [1] concerns HIV-1 K103N mutant virus in Hela P4/R5 cells. As to the kind of experiment: HIV-1 single cycle replication assay, K103N mutant virus. It is filed as cell-based.
Test [2] relates to HIV-1 Y181F/Y188F mutant virus in Hela P4/R5 cells. As to the kind of experiment: HIV-1 single cycle replication assay, Y181F/Y188F mutant virus. The test is classed as cell-based.
Test [3] relates to HIV-1 Y188L mutant virus in Hela P4/R5 cells. As to the kind of experiment: HIV-1 single cycle replication assay, Y188L mutant virus. It is filed as cell-based.
In test [4] the test system is HIV-1 K103E mutant virus in Hela P4/R5 cells. The test is described as follows: HIV-1 single cycle replication assay, K103E mutant virus. It is filed as cell-based.
In test [5] the test system is HIV-1 Y181C mutant virus in Hela P4/R5 cells. As to the kind of experiment: HIV-1 single cycle replication assay, Y181C mutant virus. The test is classed as cell-based.
The test system of test [6] is HIV-1 K103A mutant virus in Hela P4/R5 cells. The test is described as follows: HIV-1 single cycle replication assay, K103A mutant virus. The test is classed as cell-based.
For test [7], the system named is HIV-1 Y181F mutant virus in Hela P4/R5 cells. As to the kind of experiment: HIV-1 single cycle replication assay, Y181F mutant virus. It is filed as cell-based.
Test [8] has as its system HIV-1 K103N/Y188F mutant virus in Hela P4/R5 cells. As to the kind of experiment: HIV-1 single cycle replication assay, K103N/Y188F mutant virus. The test is classed as cell-based.
The subject of test [9] is HIV-1 Y188F mutant virus in Hela P4/R5 cells. As to the kind of experiment: HIV-1 single cycle replication assay, Y188F mutant virus. The test is classed as cell-based.
In test [10] the test system is HIV-1 WT virus (HXB2) in Hela P4/R5 cells. As to the kind of experiment: HIV-1 single cycle replication assay, WT virus. It is filed as cell-based. To be noted: read-out: EC50 against WT virus.
A further test concerns HIV-1 WT RT (non-bio-RT). Also noted: method as in earlier work. To be noted: reported previously, read-out: Inhibitory potency IC50 versus WT RT (non-biotinylated); cited from earlier work.
The mark [11] stands for this setting: Human immunodeficiency virus 1, read-out: EC50 against K103N mutant virus.
The mark [12] stands for this setting: Human immunodeficiency virus 1, read-out: EC50 against Y181F/Y188F mutant virus.
Setting [13] is: Human immunodeficiency virus 1, read-out: EC50 against Y188L mutant virus.
[14] abbreviates: Human immunodeficiency virus 1, read-out: EC50 against K103E mutant virus.
The mark [15] stands for this setting: Human immunodeficiency virus 1, read-out: EC50 against Y181C mutant virus.
Where [16] appears, read: Human immunodeficiency virus 1, read-out: EC50 against K103A mutant virus.
Where [17] appears, read: Human immunodeficiency virus 1, read-out: EC50 against Y181F mutant virus.
Where [18] appears, read: Human immunodeficiency virus 1, read-out: EC50 against K103N/Y188F mutant virus.
[19] abbreviates: Human immunodeficiency virus 1, read-out: EC50 against Y188F mutant virus.
Setting [20] is: Human immunodeficiency virus 1, HXB2, single-cycle replication, Hela P4/R5 cells, 48 h, mean ± SD.

`CC(C)Nc1cccnc1N1CCN(C(=O)c2cc3cc(NS(C)(=O)=O)ccc3[nH]2)CC1` [DLV, delavirdine]: the EC50 in test [1] (setting [11]) was found to be 2600 ± 346 nM; in test [2] (setting [12]), 4.1 ± 0.12 nM; in test [3] (setting [13]), 913 ± 90 nM; in test [4] (setting [14]), 64 ± 7 nM; in test [5] (setting [15]) it was 1150 ± 301 nM; in [6] (setting [16]), 38 ± 12 nM. The EC50 in [7] (setting [17]) was 8.6 ± 1.3 nM; in [8] (setting [18]) it was 1500 ± 43 nM; in test [9] (setting [19]), 14 ± 4 nM; in test [10] (Human immunodeficiency virus 1, HXB2, 48 h), 26 ± 7 nM.

Turning to `O=C1Nc2ccc(Cl)cc2[C@@](C#CC2CC2)(C(F)(F)F)O1` [EFV, efavirenz], the EC50 worked out at 69 ± 5.7 nM in test [1] (setting [11]); 0.4 ± 0.1 nM in [2] (setting [12]); 639 ± 63 nM in test [3] (setting [13]); 0.9 ± 0.3 nM in test [4] (setting [14]); 1.4 ± 0.1 nM in test [5] (setting [15]); 2 ± 0.2 nM in test [6] (setting [16]). Also, the EC50 in test [7] (setting [17]) was 0.5 ± 0.07 nM; in [8] (setting [18]), 40 ± 8.1 nM; in test [9] (setting [19]), 0.3 ± 0.05 nM; in test [10] (setting [20]), 1.2 nM. The IC50 with HIV-1 WT RT (non-bio-RT) is 0.42 nM. Further, in [9] (fold more sensitive than WT virus), the “Y188F mutant virus more sensitive to inhibition than WT virus” value is listed as ~ 4 fold.

For the compound `Cc1ccnc2c1NC(=O)c1cccnc1N2C1CC1` [NVP, nevirapine], the EC50 was 5080 ± 1690 nM in [1] (Human immunodeficiency virus 1, single-cycle replication, Hela P4/R5 cells, mean ± SD, read-out: EC50 against K103N mutant virus); 34 ± 2.5 nM in [2] (Human immunodeficiency virus 1, single-cycle replication, Hela P4/R5 cells, mean ± SD, read-out: EC50 against Y181F/Y188F mutant virus); greater than 25000 nM in [3] (Human immunodeficiency virus 1, single-cycle replication, Hela P4/R5 cells, mean ± SD, read-out: EC50 against Y188L mutant virus); 65 ± 27 nM in test [4] (Human immunodeficiency virus 1, single-cycle replication, Hela P4/R5 cells, mean ± SD, read-out: EC50 against K103E mutant virus); 2270 ± 197 nM in test [5] (Human immunodeficiency virus 1, single-cycle replication, Hela P4/R5 cells, mean ± SD, read-out: EC50 against Y181C mutant virus); 216 ± 51 nM in test [6] (Human immunodeficiency virus 1, single-cycle replication, Hela P4/R5 cells, mean ± SD, read-out: EC50 against K103A mutant virus). The EC50 worked out at 37 ± 7 nM in [7] (Human immunodeficiency virus 1, single-cycle replication, Hela P4/R5 cells, mean ± SD, read-out: EC50 against Y181F mutant virus); 14500 nM in test [8] (Human immunodeficiency virus 1, single-cycle replication, Hela P4/R5 cells, mean ± SD, read-out: EC50 against K103N/Y188F mutant virus); 62 ± 11 nM in [9] (Human immunodeficiency virus 1, single-cycle replication, Hela P4/R5 cells, mean ± SD, read-out: EC50 against Y188F mutant virus); 95 ± 6 nM in [10] (setting [20]). For the same compound, the IC50 in the test with HIV-1 WT RT (non-bio-RT) was 137 nM.
